Reference: patent US20050245399A1, “Pyrazole derivatives as herbicidal compositions containing them” (ISHIHARA SANGYO KAISHA, LTD., priority 2004, published 2005)

Tests used:
Assay type in all cases: in vivo
[1] = tested on: soybean (Glycine max Merr.): GLXMA; assay: Test Example 1 pre-emergence herbicidal activity, GLXMA; details: Rate 63 g a.i./ha, visually observed 20th to 23rd day after application
Method in brief: (§1)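 Compound was delivered by small sprayer to sown upland soil one day after sowing, before emergence, at 500 L/ha spray volume. Plant growth was assessed visually around 3 weeks later (days 20–23), 100% denoting complete kill.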

[2] = tested on: prickly sida (Sida spinosa L.): SEDSP; assay: Test Example 1 pre-emergence herbicidal activity, SIDSP; details: Rate 63 g a.i./ha, visually observed 20th to 23rd day after application
Method in brief: as §1

[3] = tested on: corn (Zea mays L.): ZEAMX; assay: Test Example 1 pre-emergence herbicidal activity, ZEAMX; details: Rate 63 g a.i./ha, visually observed 20th to 23rd day after application
Method in brief: as §1

[4] = tested on: japanese ribbon wapato (Sagittaria pygmaea: SA GPY); assay: Test Example 3 water application herbicidal activity (paddy), SAGPY; details: 63 g a.i./ha, water application under submerged condition, tubers planted, visually observed 14th day after application; 0 = untreated control, 100 = complete kill
Method in brief: (§2)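 Flooded paddy-soil pots in greenhouse; ECHOR and SCPJO sown, SAGPY tubers planted a day later, compound applied into 3–4 cm water at weeds' 0.5-leaf stage. Rice transplanted at 2-leaf stage, treated day 4 after transplanting. Visual growth control 0–100% at 14 days (weeds) and 21 days (rice) after application.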

[5] = tested on: crabgrass (Digitaria sanguinalis L.): DIGSA; assay: Test Example 1 pre-emergence herbicidal activity, DIGSA; details: Rate 63 g a.i./ha, visually observed 20th to 23rd day after application
Method in brief: as §1

[6] = tested on: rice (Oryza sativa L.): ORYSA; assay: Test Example 1 pre-emergence herbicidal activity, ORYSA; details: Rate 63 g a.i./ha, visually observed 20th to 23rd day after application
Method in brief: as §1

[7] = tested on: barnyardgrass (Echinochloa crus-galli L.), ECHCG; assay: Test Example 2 post-emergence (foliage treatment) herbicidal activity, ECHCG; details: 63 g a.i./ha
Method in brief: (§3)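 Greenhouse pot test with upland field soil. Treatment: foliage spray, active ingredient at a predetermined amount, 500 L/ha, spreader 0.1% (v/v); leaf stage 0.1-1.5 (AMARE), 1.1-2.1 (ECHCG), 1.0-2.0 (DIGSA), 1.0-2 (ORYSA). Endpoint: visual % control, d20-23.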

[8] = tested on: rice (Oryza sativa L.: ORYSA); assay: Test Example 3 water application herbicidal activity (paddy), transplanted rice ORYSA; details: 63 g a.i./ha, water application 4th day after transplantation of 2 leaf stage rice, visually observed 21st day after application; 0 = untreated control, 100 = complete kill
Method in brief: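 Compound, as diluted wettable powder or emulsifiable concentrate, was pipetted into flood water at a set active-ingredient dose. Weeds were treated at 0.5-leaf stage after sowing or tuber planting; 2-leaf rice 4 days post-transplant. Control scored visually, 0 untreated to 100 complete kill, weeds day 14, rice day 21.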

[9] = tested on: prickly sida (Sida spinosa L.), SIDSP; assay: Test Example 2 post-emergence (foliage treatment) herbicidal activity, SIDSP; details: 63 g a.i./ha
Method in brief: (§4)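 Foliar spray of formulated compound (500 L/ha dilution water, 0.1% v/v spreader) onto young potted plants at defined leaf stages. Scored 0-100% by visual inspection 20-23 d post-spray.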

[10] = tested on: crabgrass (Digitaria sanguinalis L.), DIGSA; assay: Test Example 2 post-emergence (foliage treatment) herbicidal activity, DIGSA; details: 63 g a.i./ha
Method in brief: as §3

[11] = tested on: corn (Zea mays L.), ZEAMX; assay: Test Example 2 post-emergence (foliage treatment) herbicidal activity, ZEAMX; details: 63 g a.i./ha
Method in brief: as §4

[12] = tested on: green foxtail (Setaria viridis L.): SETVI; assay: Test Example 1 pre-emergence herbicidal activity, SETVI; details: Rate 63 g a.i./ha, visually observed 20th to 23rd day after application
Method in brief: as §1

[13] = tested on: redroot pigweed (Amaranthus retroflexus L.), AMARE; assay: Test Example 2 post-emergence (foliage treatment) herbicidal activity, AMARE; details: 63 g a.i./ha
Method in brief: as §3

[14] = tested on: japanese bulrush (Scirpus juncoides: SCPJO); assay: Test Example 3 water application herbicidal activity (paddy), SCPJO; details: 63 g a.i./ha, water application under submerged condition at 0.5 leaf stage, visually observed 14th day after application; 0 = untreated control, 100 = complete kill
Method in brief: as §2

[15] = tested on: wheat (Triticum aestivum L.), TRZAX; assay: Test Example 2 post-emergence (foliage treatment) herbicidal activity, TRZAX; details: 63 g a.i./ha
Method in brief: as §4

[16] = tested on: green foxtail (Setaria viridis L.), SETVI; assay: Test Example 2 post-emergence (foliage treatment) herbicidal activity, SETVI; details: 63 g a.i./ha
Method in brief: as §4

[17] = tested on: soybean (Glycine max Merr.), GLXMA; assay: Test Example 2 post-emergence (foliage treatment) herbicidal activity, GLXMA; details: 63 g a.i./ha
Method in brief: as §4

[18] = tested on: wheat (Triticum aestivum L.): TRZAX; assay: Test Example 1 pre-emergence herbicidal activity, TRZAX; details: Rate 63 g a.i./ha, visually observed 20th to 23rd day after application
Method in brief: as §1

[19] = tested on: rice (Oryza sativa L.), ORYSA; assay: Test Example 2 post-emergence (foliage treatment) herbicidal activity, ORYSA; details: 63 g a.i./ha
Method in brief: as §3

[20] = tested on: velvetleaf (Abutilon theophrasti): ABUTH; assay: Test Example 1 pre-emergence herbicidal activity, ABUTH; details: Rate 63 g a.i./ha, visually observed 20th to 23rd day after application
Method in brief: as §1

[21] = tested on: barnyardgrass (Echinochiloa oryzicola: ECHOR); assay: Test Example 3 water application herbicidal activity (paddy), ECHOR; details: 63 g a.i./ha, water application under submerged condition at 0.5 leaf stage, visually observed 14th day after application; 0 = untreated control, 100 = complete kill
Method in brief: as §2

[22] = tested on: velvetleaf (Abutilon theophrasti), ABUTH; assay: Test Example 2 post-emergence (foliage treatment) herbicidal activity, ABUTH; details: 63 g a.i./ha
Method in brief: as §4

[23] = tested on: redroot pigweed (Amaranthus retroflexus L.): AMARE; assay: Test Example 1 pre-emergence herbicidal activity, AMARE; details: Rate 63 g a.i./ha, visually observed 20th to 23rd day after application
Method in brief: as §1

[24] = tested on: barnyardgrass (Echinochloa crus-galli L.): ECHCG; assay: Test Example 1 pre-emergence herbicidal activity, ECHCG; details: Rate 63 g a.i./ha, visually observed 20th to 23rd day after application
Method in brief: as §1

COc1c(Cl)cc(F)c(-c2nn(C)c(OC(F)F)c2Cl)c1NC(=O)COc1ccc(C#N)cc1 [Compound 1-36]
Pre-emergence Herbicidal Activity GLXMA (growth controlling degree) [1]: 0%
Pre-emergence Herbicidal Activity SIDSP (growth controlling degree) [2]: 20%
Pre-emergence Herbicidal Activity ZEAMX (growth controlling degree) [3]: 0%
growth controlling degrees (%) SAGPY [4]: 70%
Pre-emergence Herbicidal Activity DIGSP (growth controlling degree) [5]: 30%
Pre-emergence Herbicidal Activity ORYSA (growth controlling degree) [6]: 10%
growth controlling degree, ECHCO [7]: 50%
growth controlling degrees (%) ORYSA [8]: 35%
growth controlling degree, SIDSP [9]: 100%
growth controlling degree, DIGSP [10]: 60%
growth controlling degree, ZEAMX [11]: 0%
Pre-emergence Herbicidal Activity SETVI (growth controlling degree) [12]: 60%
growth controlling degree, AMARE [13]: 100%
growth controlling degrees (%) SCPJO [14]: 40%
growth controlling degree, TRZAX [15]: 10%
growth controlling degree, SETVI [16]: 60%
growth controlling degree, GLXMA [17]: 50%
Pre-emergence Herbicidal Activity TRZAX (growth controlling degree) [18]: 0%
growth controlling degree, ORYSA [19]: 20%
Pre-emergence Herbicidal Activity ABUTH (growth controlling degree) [20]: 30%
growth controlling degrees (%) ECHOR [21]: 100%
growth controlling degree, ABUTH [22]: 100%
Pre-emergence Herbicidal Activity AMARE (growth controlling degree) [23]: 100%
Pre-emergence Herbicidal Activity ECHCG (growth controlling degree) [24]: 10%

Cn1nc(-c2c(F)cc(Cl)c(OC(F)F)c2NC=O)c(Cl)c1OC(F)F [Compound 1-82]
Pre-emergence Herbicidal Activity GLXMA (growth controlling degree) [1]: 10%
Pre-emergence Herbicidal Activity SIDSP (growth controlling degree) [2]: 100%
Pre-emergence Herbicidal Activity ZEAMX (growth controlling degree) [3]: 40%
growth controlling degrees (%) SAGPY [4]: 100%
Pre-emergence Herbicidal Activity DIGSP (growth controlling degree) [5]: 100%
Pre-emergence Herbicidal Activity ORYSA (growth controlling degree) [6]: 80%
growth controlling degree, ECHCO [7]: 100%
growth controlling degrees (%) ORYSA [8]: 60%
growth controlling degree, SIDSP [9]: 100%
growth controlling degree, DIGSP [10]: 100%
growth controlling degree, ZEAMX [11]: 70%
Pre-emergence Herbicidal Activity SETVI (growth controlling degree) [12]: 100%
growth controlling degree, AMARE [13]: 100%
growth controlling degrees (%) SCPJO [14]: 98%
growth controlling degree, TRZAX [15]: 60%
growth controlling degree, SETVI [16]: 100%
growth controlling degree, GLXMA [17]: 90%
Pre-emergence Herbicidal Activity TRZAX (growth controlling degree) [18]: 60%
growth controlling degree, ORYSA [19]: 70%
Pre-emergence Herbicidal Activity ABUTH (growth controlling degree) [20]: 100%
growth controlling degrees (%) ECHOR [21]: 100%
growth controlling degree, ABUTH [22]: 100%
Pre-emergence Herbicidal Activity AMARE (growth controlling degree) [23]: 100%
Pre-emergence Herbicidal Activity ECHCG (growth controlling degree) [24]: 100%

COc1cccc(C(=O)Nc2c(OC)c(Cl)cc(F)c2-c2nn(C)c(OC(F)F)c2Cl)c1 [Compound 1-28]
Pre-emergence Herbicidal Activity GLXMA (growth controlling degree) [1]: 20%
Pre-emergence Herbicidal Activity SIDSP (growth controlling degree) [2]: 100%
Pre-emergence Herbicidal Activity ZEAMX (growth controlling degree) [3]: 0%
growth controlling degrees (%) SAGPY [4]: 100%
Pre-emergence Herbicidal Activity DIGSP (growth controlling degree) [5]: 100%
Pre-emergence Herbicidal Activity ORYSA (growth controlling degree) [6]: 60%
growth controlling degree, ECHCO [7]: 100%
growth controlling degrees (%) ORYSA [8]: 50%
growth controlling degree, SIDSP [9]: 90%
growth controlling degree, DIGSP [10]: 100%
growth controlling degree, ZEAMX [11]: 90%
Pre-emergence Herbicidal Activity SETVI (growth controlling degree) [12]: 100%
growth controlling degree, AMARE [13]: 100%
growth controlling degrees (%) SCPJO [14]: 80%
growth controlling degree, TRZAX [15]: 40%
growth controlling degree, SETVI [16]: 100%
growth controlling degree, GLXMA [17]: 98%
Pre-emergence Herbicidal Activity TRZAX (growth controlling degree) [18]: 20%
growth controlling degree, ORYSA [19]: 95%
Pre-emergence Herbicidal Activity ABUTH (growth controlling degree) [20]: 100%
growth controlling degrees (%) ECHOR [21]: 100%
growth controlling degree, ABUTH [22]: 100%
Pre-emergence Herbicidal Activity AMARE (growth controlling degree) [23]: 100%
Pre-emergence Herbicidal Activity ECHCG (growth controlling degree) [24]: 80%

Cn1nc(-c2c(F)cc(Cl)c(OC(F)F)c2NCc2ccccc2)c(Cl)c1OC(F)F [Compound 1-88]
Pre-emergence Herbicidal Activity GLXMA (growth controlling degree) [1]: 40%
Pre-emergence Herbicidal Activity SIDSP (growth controlling degree) [2]: 80%
Pre-emergence Herbicidal Activity ZEAMX (growth controlling degree) [3]: 0%
growth controlling degrees (%) SAGPY [4]: 60%
Pre-emergence Herbicidal Activity DIGSP (growth controlling degree) [5]: 98%
Pre-emergence Herbicidal Activity ORYSA (growth controlling degree) [6]: 10%
growth controlling degree, ECHCO [7]: 100%
growth controlling degrees (%) ORYSA [8]: 20%
growth controlling degree, SIDSP [9]: 100%
growth controlling degree, DIGSP [10]: 98%
growth controlling degree, ZEAMX [11]: 60%
Pre-emergence Herbicidal Activity SETVI (growth controlling degree) [12]: 70%
growth controlling degree, AMARE [13]: 100%
growth controlling degrees (%) SCPJO [14]: 80%
growth controlling degree, TRZAX [15]: 30%
growth controlling degree, SETVI [16]: 100%
growth controlling degree, GLXMA [17]: 60%
Pre-emergence Herbicidal Activity TRZAX (growth controlling degree) [18]: 0%
growth controlling degree, ORYSA [19]: 30%
Pre-emergence Herbicidal Activity ABUTH (growth controlling degree) [20]: 70%
growth controlling degrees (%) ECHOR [21]: 100%
growth controlling degree, ABUTH [22]: 100%
Pre-emergence Herbicidal Activity AMARE (growth controlling degree) [23]: 100%
Pre-emergence Herbicidal Activity ECHCG (growth controlling degree) [24]: 50%
